Measured values: patent US9221808B2, “Pyridylthiazole-based ureas as inhibitors of Rho associated protein kinase (ROCK) and methods of use” (H. Lee Moffitt Cancer Center and Research Institute, Inc., priority 2010, dated 2015)
“And” between values parts separate entries of the source, which are not always exact repeats. Identical values can stand only once. Counter-ions that a name gives are not always drawn. Like-named read-outs stand apart in the source and are kept apart here.

What was measured:
ROCK1 = ROCK1 (Homo sapiens (Human), UniProt Q13464); assay: FRET-based Z'-Lyte kinase assay, ROCK1; type: biochemical; conditions: for IC50: read-out: IC50 ± SD (μM) ROCK1; for inhibition at 50 µM: read-out: ROCK1 % inhibition @ 50 μM;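 on all read-outs here: kinase phosphorylates a coumarin/fluorescein-labelled FRET peptide, then a protease cleaves unphosphorylated peptide, progress read as donor to acceptor emission ratio after 400 nm excitation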
Excerpt: (§1) A) In the primary reaction, the Rho kinases phosphorylates a single serine or threonine residue in a synthetic FRET-peptide. This FRET-peptide is doubly labeled with a fluorophore at each end—coumarin (the FRET donor) on one end and fluorescein (the FRET acceptor) on the other—and also contains a single phosphorylation site which either overlaps with or lies adjacent to the proteolytic site. B) In the secondary reaction, a site-specific protease recognizes and cleaves the non-phosphorylated FRET-peptide. Cleavage disrupts FRET between the donor and acceptor fluorophores on the FRET-peptide, whereas uncleaved, phosphorylated FRET-peptides maintain FRET. Kinases phosphorylated FRET-peptides cannot be cleaved by the protease. […] Cleavage disrupts FRET and causes a decrease in the fluorescein fluorescence signal and a strong increase in the coumarin fluorescence signal. Therefore the extension of the phosphprylation can be measured by FRET-signal remaining the protease reaction. The assay uses a ratiometric method, which calculates the ratio of donor emission to acceptor emission (the emission ratio) after excitation of the donor fluorophore at 400 nm, to quantitate reaction progress.
(§2) All compounds were systematically screened against ROCK1 and ROCK2.

ROCK2 = ROCK2 (Homo sapiens (Human), UniProt O75116); assay: FRET-based Z'-Lyte kinase assay, ROCK2; type: biochemical; conditions: read-out: IC50 ± SD (μM) ROCK2;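 further: kinase phosphorylates a coumarin/fluorescein FRET peptide, then a protease cleaves unphosphorylated peptide, read as donor/acceptor emission ratio after 400 nm excitation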
Chain of ROCK2 (O75116 whole entry, species assumed): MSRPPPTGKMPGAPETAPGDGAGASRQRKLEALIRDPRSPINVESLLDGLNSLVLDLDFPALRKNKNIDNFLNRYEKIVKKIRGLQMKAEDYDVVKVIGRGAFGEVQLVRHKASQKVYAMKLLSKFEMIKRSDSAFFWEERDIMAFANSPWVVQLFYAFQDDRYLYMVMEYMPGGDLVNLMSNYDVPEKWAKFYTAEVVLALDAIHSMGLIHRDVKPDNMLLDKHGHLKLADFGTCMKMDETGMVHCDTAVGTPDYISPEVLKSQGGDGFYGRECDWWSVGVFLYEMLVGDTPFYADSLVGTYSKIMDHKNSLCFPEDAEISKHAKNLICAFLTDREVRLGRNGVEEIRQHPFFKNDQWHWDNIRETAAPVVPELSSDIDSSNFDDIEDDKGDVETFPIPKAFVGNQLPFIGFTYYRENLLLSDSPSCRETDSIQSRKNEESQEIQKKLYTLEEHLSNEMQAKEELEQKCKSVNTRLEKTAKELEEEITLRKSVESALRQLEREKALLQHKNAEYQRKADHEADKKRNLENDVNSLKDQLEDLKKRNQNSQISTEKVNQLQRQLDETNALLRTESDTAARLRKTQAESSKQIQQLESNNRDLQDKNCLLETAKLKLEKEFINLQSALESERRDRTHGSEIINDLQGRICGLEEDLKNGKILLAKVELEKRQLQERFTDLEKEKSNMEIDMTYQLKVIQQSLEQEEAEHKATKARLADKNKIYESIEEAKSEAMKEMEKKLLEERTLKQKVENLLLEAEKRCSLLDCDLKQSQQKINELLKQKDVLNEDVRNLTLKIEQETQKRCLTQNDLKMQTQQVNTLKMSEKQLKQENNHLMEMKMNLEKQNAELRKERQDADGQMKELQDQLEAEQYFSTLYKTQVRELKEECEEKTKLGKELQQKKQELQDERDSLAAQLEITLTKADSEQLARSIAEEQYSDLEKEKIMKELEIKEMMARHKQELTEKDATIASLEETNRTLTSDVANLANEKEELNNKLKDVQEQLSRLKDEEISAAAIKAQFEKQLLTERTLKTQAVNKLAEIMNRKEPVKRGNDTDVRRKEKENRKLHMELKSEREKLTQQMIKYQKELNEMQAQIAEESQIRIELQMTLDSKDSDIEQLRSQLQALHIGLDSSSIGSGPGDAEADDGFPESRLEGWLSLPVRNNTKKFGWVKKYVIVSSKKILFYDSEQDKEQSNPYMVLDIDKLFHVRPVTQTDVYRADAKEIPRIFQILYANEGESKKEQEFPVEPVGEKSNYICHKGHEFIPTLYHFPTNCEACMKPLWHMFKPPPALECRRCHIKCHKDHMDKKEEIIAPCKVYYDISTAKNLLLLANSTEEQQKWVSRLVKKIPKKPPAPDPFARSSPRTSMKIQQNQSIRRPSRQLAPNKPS
Excerpt: as §1, §2

Chain of ROCK1 (Q13464 whole entry, species assumed): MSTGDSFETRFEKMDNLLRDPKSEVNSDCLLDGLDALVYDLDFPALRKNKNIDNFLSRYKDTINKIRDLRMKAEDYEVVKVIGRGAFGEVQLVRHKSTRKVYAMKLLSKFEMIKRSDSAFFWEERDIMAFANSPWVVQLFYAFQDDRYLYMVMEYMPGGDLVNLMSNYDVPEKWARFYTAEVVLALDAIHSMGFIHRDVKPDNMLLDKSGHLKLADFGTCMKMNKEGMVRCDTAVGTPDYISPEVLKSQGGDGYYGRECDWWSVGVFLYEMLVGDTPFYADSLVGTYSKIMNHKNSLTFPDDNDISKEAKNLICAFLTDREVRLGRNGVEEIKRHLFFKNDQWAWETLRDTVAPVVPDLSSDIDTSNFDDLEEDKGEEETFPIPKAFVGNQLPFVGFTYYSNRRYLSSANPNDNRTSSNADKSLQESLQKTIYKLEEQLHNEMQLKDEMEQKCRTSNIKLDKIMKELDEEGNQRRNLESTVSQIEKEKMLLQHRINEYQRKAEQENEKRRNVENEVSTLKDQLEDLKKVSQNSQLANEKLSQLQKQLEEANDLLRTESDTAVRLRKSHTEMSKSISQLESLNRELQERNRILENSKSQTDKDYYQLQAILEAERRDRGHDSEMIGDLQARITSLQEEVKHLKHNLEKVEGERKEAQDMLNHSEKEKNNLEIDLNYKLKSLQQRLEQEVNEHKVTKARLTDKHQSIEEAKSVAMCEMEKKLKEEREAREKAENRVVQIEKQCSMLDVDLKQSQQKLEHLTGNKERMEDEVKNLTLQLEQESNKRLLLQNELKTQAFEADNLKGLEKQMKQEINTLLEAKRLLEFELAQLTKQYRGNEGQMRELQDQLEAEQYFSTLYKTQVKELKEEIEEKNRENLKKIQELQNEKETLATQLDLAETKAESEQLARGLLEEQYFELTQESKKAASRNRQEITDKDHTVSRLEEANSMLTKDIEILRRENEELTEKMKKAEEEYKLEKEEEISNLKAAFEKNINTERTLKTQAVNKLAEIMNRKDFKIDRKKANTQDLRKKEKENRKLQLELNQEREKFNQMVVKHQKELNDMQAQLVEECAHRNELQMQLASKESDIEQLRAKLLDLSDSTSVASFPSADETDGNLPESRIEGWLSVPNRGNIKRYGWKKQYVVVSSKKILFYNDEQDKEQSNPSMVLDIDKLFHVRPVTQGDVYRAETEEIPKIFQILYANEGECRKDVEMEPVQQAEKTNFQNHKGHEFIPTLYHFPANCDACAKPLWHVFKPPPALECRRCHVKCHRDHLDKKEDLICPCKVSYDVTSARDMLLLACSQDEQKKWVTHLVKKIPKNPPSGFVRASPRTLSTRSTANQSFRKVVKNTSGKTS

| IC50 (ROCK1) | IC50 (ROCK2) | inhibition at 50 µM (ROCK1; 50 μM compound) [%] | Structure (SMILES) | further results |
| --- | --- | --- | --- | --- |
| 0.15 µM and 0.17 µM | 0.09 µM and 0.05 µM | – | O=C(NCc1ccccc1)Nc1nc(-c2ccncc2)cs1 [Compound 1aa, 1-Benzyl-3-(4-(pyridin-4-yl)thiazol-2-yl)urea] | – |
| 0.4 ± 0.03 µM | 0.12 ± 0.01 µM | – | O=C(NCc1ccccc1F)Nc1nc(-c2ccncc2)cs1 [Compound 1ac, 1-(2-Fluorobenzyl)-3-(4-(pyridin-4-yl)thiazol-2-yl)urea] | – |
| 1.4 ± 0.11 µM | 0.47 ± 0.03 µM | – | COc1ccccc1CNC(=O)Nc1nc(-c2ccncc2)cs1 [Compound 1ad, 1-(2-Methoxybenzyl)-3-(4-(pyridin-4-yl)thiazol-2-yl)urea] | – |
| 0.34 ± 0.02 µM | 0.11 ± 0.01 µM | – | O=C(NCc1ccccc1Cl)Nc1nc(-c2ccncc2)cs1 [Compound 1ae, 1-(2-Chlorobenzyl)-3-(4-(pyridin-4-yl)thiazol-2-yl)urea] | – |
| 0.14 µM and 0.1 µM | 0.06 µM and 0.05 µM | – | O=C(NCc1cccc(F)c1)Nc1nc(-c2ccncc2)cs1 [Compound 1aj, 1-(3-Fluorobenzyl)-3-(4-(pyridin-4-yl)thiazol-2-yl)urea] | – |
| 1.17 ± 0.15 µM | 0.38 ± 0.03 µM | – | O=C(NCc1ccco1)Nc1nc(-c2ccncc2)cs1 [Compound 1ak1, 1-(Furan-2-ylmethyl)-3-(4-(pyridin-4-yl)thiazol-2-yl)urea] | – |
| 0.1 µM and 0.14 µM | 0.06 ± 0.01 µM | – | O=C(NCc1cccc(Cl)c1)Nc1nc(-c2ccncc2)cs1 [Compound 1an, 1-(3-Chlorobenzyl)-3-(4-(pyridin-4-yl)thiazol-2-yl)urea] | – |
| 0.91 ± 0.15 µM | 0.49 ± 0.07 µM | – | O=C(NCc1cccnc1)Nc1nc(-c2ccncc2)cs1 [Compound 1ao, 1-(Pyridin-3-ylmethyl)-3-(4-(pyridin-4-yl)thiazol-2-yl)urea] | – |
| 1.82 ± 0.18 µM | 1.44 ± 0.22 µM | – | O=C(NCc1ccccn1)Nc1nc(-c2ccncc2)cs1 [Compound 1ap, 1-(Pyridin-2-ylmethyl)-3-(4-(pyridin-4-yl)thiazol-2-yl)urea] | – |
| 2.07 ± 0.29 µM | 1.47 ± 0.13 µM | – | O=C(NCc1ccncc1)Nc1nc(-c2ccncc2)cs1 [Compound 1aq, 1-(4-(Pyridin-4-yl)thiazol-2-yl)-3-(pyridin-4-ylmethyl)urea] | – |
| 0.48 ± 0.037 µM | 0.38 ± 0.107 µM | – | O=C(NCCc1ccccc1)Nc1nc(-c2ccncc2)cs1 [Compound 1aw, 1-Phenethyl-3-(4-(pyridin-4-yl)thiazol-2-yl)urea] | fold decrease in ROCK1 activity/potency compared to parent compound 1aa (ROCK1; comparator 1aa): 3 fold |
| 0.009 µM | – | – | O=C(NCc1cccc(O)c1)Nc1nc(-c2ccncc2)cs1 [Compound 1bo-HCl, 1-(3-hydroxybenzyl)-3-(4-(pyridin-4-yl)thiazol-2-yl)urea] | – |
| – | – | 40.9 | O=C(NCc1nc2ccccc2[nH]1)Nc1nc(-c2ccncc2)cs1 [Compound 1cs, 1-((1H-Benzo[d]imidazol-2-yl)methyl)-3-(4-(pyridin-4-yl)thiazol-2-yl)urea] | – |

Continued, compound first:

| Structure (SMILES) | IC50 (ROCK1) | IC50 (ROCK2) | inhibition at 50 µM (ROCK1; 50 μM compound) [%] | further results |
| --- | --- | --- | --- | --- |
| O=C(NCc1ccc(Cl)cc1)Nc1nc(-c2ccncc2)cs1 [Compound 1ab, 1-(4-Chlorobenzyl)-3-(4-(pyridin-4-yl)thiazol-2-yl)urea] | 2.39 ± 0.53 µM | 1.1 ± 0.16 µM | – | – |
| COc1cccc(CNC(=O)Nc2nc(-c3ccncc3)cs2)c1 [Compound 1af, 1-(3-Methoxybenzyl)-3-(4-(pyridin-4-yl)thiazol-2-yl)urea] | 0.06 µM and 0.027 µM | 0.01 µM and 0.011 µM | – | – |
| COc1cccc(CNC(=O)Nc2nc(-c3ccncc3)cs2)c1 [Compound 1af-HCl, 1-(3-methoxybenzyl)-3-(4-(pyridin-4-yl)thiazol-2-yl)urea hydrochloride] | – | – | – | IC50 (ROCK1; hydrochloride): 0.023 ± 0.01 µM; IC50 (ROCK2; hydrochloride): 0.014 ± 0.01 µM |
| COc1cccc(CNC(=O)Nc2nc(-c3ccncc3)cs2)c1 [Compound 1af-Mes, 1-(3-methoxybenzyl)-3-(4-(pyridin-4-yl)thiazol-2-yl)urea methanesulfonate] | – | – | – | IC50 (ROCK1; methanesulfonate): 0.03 ± 0.01 µM; IC50 (ROCK2; methanesulfonate): 0.01 µM |
| O=C(NCc1ccc(Cl)cc1Cl)Nc1nc(-c2ccncc2)cs1 [Compound 1ag, 1-(2,4-Dichlorobenzyl)-3-(4-(pyridin-4-yl)thiazol-2-yl)urea] | 1.88 ± 0.17 µM | 0.4 ± 0.07 µM | – | – |
| C[C@@H](NC(=O)Nc1nc(-c2ccncc2)cs1)c1ccccc1 [Compound 1ah, (R)-1-(1-Phenylethyl)-3-(4-(pyridin-4-yl)thiazol-2-yl)urea] | 0.043 µM and 0.019 µM | 0.012 ± 0.004 µM | – | fold more potent than parent compound 1aa (ROCK1; comparator 1aa): 7 fold; fold more potent/active than its enantiomer (ROCK1; comparator: enantiomer (1ai for 1ah, 1bf for 1be)): 215 fold |
| C[C@H](NC(=O)Nc1nc(-c2ccncc2)cs1)c1ccccc1 [Compound 1ai, (S)-1-(1-Phenylethyl)-3-(4-(pyridin-4-yl)thiazol-2-yl)urea] | 3.56 µM and 3.29 µM | 1.6 µM and 1.9 µM | – | – |
| O=C(NCc1ccc(F)cc1)Nc1nc(-c2ccncc2)cs1 [Compound 1ak, 1-(4-Fluorobenzyl)-3-(4-(pyridin-4-yl)thiazol-2-yl)urea] | 0.57 ± 0.05 µM | 0.19 µM | – | – |
| COc1cccc(CNC(=O)N(C)c2nc(-c3ccncc3)cs2)c1 [Compound 1al, 3-(3-Methoxybenzyl)-1-methyl-1-(4-(pyridin-4-yl)thiazol-2-yl)urea] | 0.06 ± 0.04 µM | 0.002 ± 0.0015 µM | – | – |
| COc1ccc(CNC(=O)Nc2nc(-c3ccncc3)cs2)cc1.Cl [Compound 1am-HCl, 1-(4-methoxybenzyl)-3-(4-(pyridin-4-yl)thiazol-2-yl)urea hydrochloride] | – | – | – | ROCK1 % inhibition @ 50 μM (ROCK1; 50 μM compound): ROCK1 % inhibition @ 50 μM: 15.26 ± 0.91 |
| COc1ccc(CNC(=O)Nc2nc(-c3ccncc3)cs2)cc1 [Compound 1am-Mes, 1-(4-methoxybenzyl)-3-(4-(pyridin-4-yl)thiazol-2-yl)urea methanesulfonate] | 36.2 ± 10 µM | 7.42 ± 2.29 µM | – | – |
| CN(Cc1ccccc1)C(=O)Nc1nc(-c2ccncc2)cs1 [Compound 1au, 1-Benzyl-1-methyl-3-(4-(pyridin-4-yl)thiazol-2-yl)urea] | 0.11 ± 0.003 µM | 0.07 ± 0.015 µM | – | – |
| O=C(NCc1cccc2ccccc12)Nc1nc(-c2ccncc2)cs1 [Compound 1av, 1-(Naphthalen-1-ylmethyl)-3-(4-(pyridin-4-yl)thiazol-2-yl)urea] | 1.1 ± 0.202 µM | 0.58 ± 0.218 µM | – | – |
| O=C(NCc1ccc([N+](=O)[O-])cc1)Nc1nc(-c2ccncc2)cs1 [Compound 1az, 1-(4-Nitrobenzyl)-3-(4-(pyridin-4-yl)thiazol-2-yl)urea] | – | – | 34.5 | – |
| COc1cc(CNC(=O)Nc2nc(-c3ccncc3)cs2)cc(OC)c1 [Compound 1bb, 1-(3,5-Dimethoxybenzyl)-3-(4-(pyridin-4-yl)thiazol-2-yl)urea] | – | – | 9.95 | – |
| COc1cccc([C@@H](C)NC(=O)Nc2nc(-c3ccncc3)cs2)c1 [Compound 1bh, (R)-1-(1-(3-Methoxyphenyl)ethyl)-3-(4-(pyridin-4-yl)thiazol-2-yl)urea] | – | 0.009 ± 0.007 µM | – | – |

| Structure (SMILES) | IC50 (ROCK1) | IC50 (ROCK2) | inhibition at 50 µM (ROCK1; 50 μM compound) [%] | further results |
| --- | --- | --- | --- | --- |
| O=C(NCc1cccc(OC(F)(F)F)c1)Nc1nc(-c2ccncc2)cs1 [Compound 1br, 1-(4-(Pyridin-4-yl)thiazol-2-yl)-3-(3-(trifluoromethoxy)benzyl)urea] | – | – | 7.48 | – |
| COc1ccc([C@H](C)NC(=O)Nc2nc(-c3ccncc3)cs2)cc1 [Compound 1by, (S)-1-(1-(4-methoxyphenyl)ethyl)-3-(4-(pyridin-4-yl)thiazol-2-yl)urea] | – | – | 1.09 | – |
| C[C@H](NC(=O)Nc1nc(-c2ccncc2)cs1)c1cccc(Cl)c1 [Compound 1ce, (S)-1-(1-(3-chlorophenyl)ethyl)-3-(4-(pyridin-4-yl)thiazol-2-yl)urea] | > 50 µM | – | – | – |
| O=C(NCc1cc(Cl)cc(Cl)c1)Nc1nc(-c2ccncc2)cs1 [Compound 1cg, 1-(3,5-dichlorobenzyl)-3-(4-(pyridin-4-yl)thiazol-2-yl)urea] | – | – | -6.26 | – |
| O=C(Nc1nc(-c2ccncc2)cs1)NC1Cc2ccccc2C1 [Compound 1cr, 1-(2,3-Dihydro-1H-inden-2-yl)-3-(4-(pyridin-4-yl)thiazol-2-yl)urea] | – | – | 40.9 | – |
| O=C(Nc1ccccc1)Nc1nc(-c2ccncc2)cs1 [Compound 6a, 1-Phenyl-3-(4-(pyridin-4-yl)thiazol-2-yl)urea] | – | – | 10.4 | – |
| O=C(Nc1nc(-c2ccncc2)cs1)Nc1ccc(F)cc1F [Compound 6b, 1-(2,4-Difluorophenyl)-3-(4-(pyridin-4-yl)thiazol-2-yl)urea] | – | – | 14.5 | – |
| O=C(Nc1ccc(F)cc1)Nc1nc(-c2ccncc2)cs1 [Compound 6c, 1-(4-Fluorophenyl)-3-(4-(pyridin-4-yl)thiazol-2-yl)urea] | – | – | 8.06 | – |
| O=C(Nc1nc(-c2ccncc2)cs1)Nc1ccccc1F [Compound 6d, 1-(2-Fluorophenyl)-3-(4-(pyridin-4-yl)thiazol-2-yl)urea] | – | – | 13.3 | – |
| O=C(NC(=O)c1ccccc1)Nc1nc(-c2ccncc2)cs1 [Compound 8, N-(4-(Pyridin-4-yl)thiazol-2-ylcarbamoyl)benzamide] | – | – | 16.3 | – |
| O=C(Nc1nc(-c2ccncc2)cs1)N1CCN(Cc2ccccc2)C[C@@H]1Cc1ccccc1 [Compound 12b, (S)-2,4-Dibenzyl-N-(4-(pyridin-4-yl)thiazol-2-yl)piperazine-1-carboxamide] | – | – | 24.3 | – |
| O=C(Nc1nc(-c2ccncc2)cs1)N1CCN(C(=O)c2ccco2)CC1 [Compound 12c, 4-(Furan-2-carbonyl)-N-(4-(pyridin-4-yl)thiazol-2-yl)piperazine-1-carboxamide] | – | – | 35 | – |
| O=C(Nc1nc(-c2ccncc2)cs1)N1CCN(c2ccncn2)CC1 [Compound 12d, N-(4-(Pyridin-4-yl)thiazol-2-yl)-4-(pyrimidin-4-yl)piperazine-1-carboxamide] | – | – | 41.4 | – |
| O=C(Nc1nc(-c2ccncc2)cs1)N1CCN(c2cccnc2)CC1 [Compound 12e, 4-(Pyridin-3-yl)-N-(4-(pyridin-4-yl)thiazol-2-yl)piperazine-1-carboxamide] | – | – | 14 | – |
| O=C(Nc1nc(-c2ccncc2)cs1)N1CCN(CC2CCCO2)CC1 (stereo not shown) [Compound 12f, N-(4-(Pyridin-4-yl)thiazol-2-yl)-4-((tetrahydrofuran-2-yl)methyl)piperazine-1-carboxamide] | – | – | -0.21 | – |
